Measurements as given in article PMC6009956, “Design, synthesis and biological activity of N^4-phenylsubstituted-7H-pyrrolo[2,3-d]pyrimidin-4-amines as dual inhibitors of aurora kinase A and epidermal growth factor receptor kinase” (Journal of Enzyme Inhibition and Medicinal Chemistry, 2017).
Read-outs that look alike come from different tables or passages of the source.

Key:
aurora A kinase (AURKA) = target: T1, aurora A kinase (AURKA) (Homo sapiens, UniProt O14965); experiment: ADP-Glo kinase assay, Aurora A; type: biochemical
T1 construct: purchased BPS Bioscience (assay run externally by the vendor)
T1 sequence (O14965 1-403): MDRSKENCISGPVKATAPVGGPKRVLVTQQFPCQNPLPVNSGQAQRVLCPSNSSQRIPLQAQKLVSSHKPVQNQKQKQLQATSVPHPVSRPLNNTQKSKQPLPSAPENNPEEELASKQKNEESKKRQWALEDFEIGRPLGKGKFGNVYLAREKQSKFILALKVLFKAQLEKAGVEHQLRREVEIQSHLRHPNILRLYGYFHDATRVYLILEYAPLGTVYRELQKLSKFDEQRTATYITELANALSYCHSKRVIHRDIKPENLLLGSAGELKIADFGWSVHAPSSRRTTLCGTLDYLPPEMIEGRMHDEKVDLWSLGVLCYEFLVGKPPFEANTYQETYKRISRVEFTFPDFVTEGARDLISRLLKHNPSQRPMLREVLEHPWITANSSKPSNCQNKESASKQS

EGFR = EGFR (Homo sapiens, UniProt P00533); experiment: ADP-Glo kinase assay, EGFR; type: biochemical; design: purchased BPS Bioscience (assay run externally by the vendor)
Chain of EGFR (P00533 25-1210): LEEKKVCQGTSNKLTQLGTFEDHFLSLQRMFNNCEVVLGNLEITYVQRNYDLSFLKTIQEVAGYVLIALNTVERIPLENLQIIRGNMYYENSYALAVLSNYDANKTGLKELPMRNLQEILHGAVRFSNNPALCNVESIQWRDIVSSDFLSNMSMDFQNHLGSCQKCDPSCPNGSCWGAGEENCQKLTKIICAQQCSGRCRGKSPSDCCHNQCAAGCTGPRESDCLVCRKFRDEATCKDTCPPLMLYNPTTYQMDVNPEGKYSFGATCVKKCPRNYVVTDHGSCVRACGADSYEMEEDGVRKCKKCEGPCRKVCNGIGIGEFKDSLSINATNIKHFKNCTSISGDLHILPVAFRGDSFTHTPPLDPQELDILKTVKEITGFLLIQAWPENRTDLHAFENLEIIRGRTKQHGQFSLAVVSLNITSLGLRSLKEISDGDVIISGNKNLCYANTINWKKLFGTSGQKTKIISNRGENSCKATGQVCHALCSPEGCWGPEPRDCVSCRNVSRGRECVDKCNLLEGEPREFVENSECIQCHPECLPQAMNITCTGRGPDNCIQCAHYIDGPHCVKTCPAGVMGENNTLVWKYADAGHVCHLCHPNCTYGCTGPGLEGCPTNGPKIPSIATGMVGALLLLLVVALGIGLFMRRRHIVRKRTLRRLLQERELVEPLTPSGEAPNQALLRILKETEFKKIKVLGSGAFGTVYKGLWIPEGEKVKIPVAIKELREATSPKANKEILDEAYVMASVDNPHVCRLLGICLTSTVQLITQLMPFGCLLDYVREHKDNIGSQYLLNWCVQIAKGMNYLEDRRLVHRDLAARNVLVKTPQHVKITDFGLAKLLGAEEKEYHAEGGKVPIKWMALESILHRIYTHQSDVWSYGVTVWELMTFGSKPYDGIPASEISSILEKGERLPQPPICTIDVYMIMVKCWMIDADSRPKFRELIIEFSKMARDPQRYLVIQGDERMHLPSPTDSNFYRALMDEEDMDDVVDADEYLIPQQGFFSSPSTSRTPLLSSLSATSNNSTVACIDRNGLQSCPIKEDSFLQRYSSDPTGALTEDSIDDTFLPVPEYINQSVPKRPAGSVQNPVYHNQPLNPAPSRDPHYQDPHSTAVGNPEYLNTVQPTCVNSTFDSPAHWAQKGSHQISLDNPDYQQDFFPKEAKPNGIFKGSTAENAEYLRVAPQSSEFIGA

[1] = 10 µM ATP, triplicate, read-out: AURKA IC50 ± SD
[2] = 10 µM ATP/0.2 mg/ml Kemptide, read-out: Aurora A IC50 (dose-response curve, supplement)
[3] = 10 µM ATP, triplicate, read-out: EGFR IC50 ± SD
[4] = 10 µM ATP/0.2 mg/ml Poly-Glu-Tyr, read-out: EGFR IC50 (dose-response curve, supplement)

Clc1cccc(Nc2ncnc3[nH]ccc23)c1 [Compound 11, N^4-(3-chlorophenyl)-7H-pyrrolo[2,3-d]pyrimidin-4-amine]
IC50 (aurora A kinase (AURKA); [1]): 3130 ± 750 nM
IC50 (aurora A kinase (AURKA); [2]): 3100 nM
Aurora A % Activity Set1 (aurora A kinase (AURKA); Log[nM] 0): 99%
Aurora A % Activity Set2 (aurora A kinase (AURKA); Log[nM] 0): 100%
Aurora A % Activity Set3 (aurora A kinase (AURKA); Log[nM] 0): 90%
Aurora A % Activity Set1 (aurora A kinase (AURKA); Log[nM] 1.0): 109%
Aurora A % Activity Set2 (aurora A kinase (AURKA); Log[nM] 1.0): 95%
Aurora A % Activity Set3 (aurora A kinase (AURKA); Log[nM] 1.0): 101%
Aurora A % Activity Set1 (aurora A kinase (AURKA); Log[nM] 1.5): 102%
Aurora A % Activity Set2 (aurora A kinase (AURKA); Log[nM] 1.5): 108%
Aurora A % Activity Set3 (aurora A kinase (AURKA); Log[nM] 1.5): 96%
Aurora A % Activity Set1 (aurora A kinase (AURKA); Log[nM] 2.0): 94%
Aurora A % Activity Set2 (aurora A kinase (AURKA); Log[nM] 2.0): 104%
Aurora A % Activity Set3 (aurora A kinase (AURKA); Log[nM] 2.0): 107%
Aurora A % Activity Set1 (aurora A kinase (AURKA); Log[nM] 2.5): 95%
Aurora A % Activity Set2 (aurora A kinase (AURKA); Log[nM] 2.5): 98%
Aurora A % Activity Set3 (aurora A kinase (AURKA); Log[nM] 2.5): 99%
Aurora A % Activity Set1 (aurora A kinase (AURKA); Log[nM] 3.0): 80%
Aurora A % Activity Set2 (aurora A kinase (AURKA); Log[nM] 3.0): 85%
Aurora A % Activity Set3 (aurora A kinase (AURKA); Log[nM] 3.0): 84%
Aurora A % Activity Set1 (aurora A kinase (AURKA); Log[nM] 3.5): 42%
Aurora A % Activity Set2 (aurora A kinase (AURKA); Log[nM] 3.5): 48%
Aurora A % Activity Set3 (aurora A kinase (AURKA); Log[nM] 3.5): 49%
Aurora A % Activity Set1 (aurora A kinase (AURKA); Log[nM] 4.0): 19%
Aurora A % Activity Set2 (aurora A kinase (AURKA); Log[nM] 4.0): 22%
Aurora A % Activity Set3 (aurora A kinase (AURKA); Log[nM] 4.0): 19%
Aurora A % Activity Set1 (aurora A kinase (AURKA); Log[nM] 4.5): 8%
Aurora A % Activity Set2 (aurora A kinase (AURKA); Log[nM] 4.5): 9%
Aurora A % Activity Set3 (aurora A kinase (AURKA); Log[nM] 4.5): 8%
Aurora A % Activity Set1 (aurora A kinase (AURKA); Log[nM] 5.0): 5%
Aurora A % Activity Set2 (aurora A kinase (AURKA); Log[nM] 5.0): 4%
Aurora A % Activity Set3 (aurora A kinase (AURKA); Log[nM] 5.0): 3%
EGFR inhibition (in words) (EGFR): single-digit nanomolar EGFR inhibition
IC50 (EGFR; [3]): 6.63 ± 0.98 nM
IC50 (EGFR; [4]): 6.5 nM
EGFR % Activity Set1 (EGFR; Log[nM] 0): 66%
EGFR % Activity Set2 (EGFR; Log[nM] 0): 62%
EGFR % Activity Set3 (EGFR; Log[nM] 0): 63%
EGFR % Activity Set1 (EGFR; Log[nM] 1.0): 36%
EGFR % Activity Set2 (EGFR; Log[nM] 1.0): 34%
EGFR % Activity Set3 (EGFR; Log[nM] 1.0): 39%
EGFR % Activity Set1 (EGFR; Log[nM] 1.5): 17%
EGFR % Activity Set2 (EGFR; Log[nM] 1.5): 16%
EGFR % Activity Set3 (EGFR; Log[nM] 1.5): 20%
EGFR % Activity Set1 (EGFR; Log[nM] 2.0): 8%
EGFR % Activity Set2 (EGFR; Log[nM] 2.0): 7%
EGFR % Activity Set3 (EGFR; Log[nM] 2.0): 11%
EGFR % Activity Set1 (EGFR; Log[nM] 2.5): 6%
EGFR % Activity Set2 (EGFR; Log[nM] 2.5): 4%
EGFR % Activity Set3 (EGFR; Log[nM] 2.5): 6%
EGFR % Activity Set1 (EGFR; Log[nM] 3.0): 3%
EGFR % Activity Set2 (EGFR; Log[nM] 3.0): 1%
EGFR % Activity Set3 (EGFR; Log[nM] 3.0): 2%
EGFR % Activity Set1 (EGFR; Log[nM] 3.5): 2%
EGFR % Activity Set2 (EGFR; Log[nM] 3.5): 0%
EGFR % Activity Set3 (EGFR; Log[nM] 3.5): 0%
EGFR % Activity Set1 (EGFR; Log[nM] 4.0): 1%
EGFR % Activity Set2 (EGFR; Log[nM] 4.0): 0%
EGFR % Activity Set3 (EGFR; Log[nM] 4.0): 0%
EGFR % Activity Set1 (EGFR; Log[nM] 4.5): 0%
EGFR % Activity Set2 (EGFR; Log[nM] 4.5): 0%
EGFR % Activity Set3 (EGFR; Log[nM] 4.5): 0%
EGFR % Activity Set1 (EGFR; Log[nM] 5.0): 0%
EGFR % Activity Set2 (EGFR; Log[nM] 5.0): 0%
EGFR % Activity Set3 (EGFR; Log[nM] 5.0): 0%

Cc1cccc(Nc2ncnc3[nH]ccc23)c1 [Compound 12, N^4-(3-methylaniline)-7H-pyrrolo[2,3-d]pyrimidin-4-amine]
IC50 (aurora A kinase (AURKA); [1]): 3430 ± 120 nM
IC50 (aurora A kinase (AURKA); [2]): 3400 nM
Aurora A % Activity Set1 (aurora A kinase (AURKA); Log[nM] 0): 101%
Aurora A % Activity Set2 (aurora A kinase (AURKA); Log[nM] 0): 105%
Aurora A % Activity Set3 (aurora A kinase (AURKA); Log[nM] 0): 95%
Aurora A % Activity Set1 (aurora A kinase (AURKA); Log[nM] 1.0): 100%
Aurora A % Activity Set2 (aurora A kinase (AURKA); Log[nM] 1.0): 102%
Aurora A % Activity Set3 (aurora A kinase (AURKA); Log[nM] 1.0): 97%
Aurora A % Activity Set1 (aurora A kinase (AURKA); Log[nM] 1.5): 97%
Aurora A % Activity Set2 (aurora A kinase (AURKA); Log[nM] 1.5): 100%
Aurora A % Activity Set3 (aurora A kinase (AURKA); Log[nM] 1.5): 97%
Aurora A % Activity Set1 (aurora A kinase (AURKA); Log[nM] 2.0): 96%
Aurora A % Activity Set2 (aurora A kinase (AURKA); Log[nM] 2.0): 101%
Aurora A % Activity Set3 (aurora A kinase (AURKA); Log[nM] 2.0): 105%
Aurora A % Activity Set1 (aurora A kinase (AURKA); Log[nM] 2.5): 89%
Aurora A % Activity Set2 (aurora A kinase (AURKA); Log[nM] 2.5): 95%
Aurora A % Activity Set3 (aurora A kinase (AURKA); Log[nM] 2.5): 95%
Aurora A % Activity Set1 (aurora A kinase (AURKA); Log[nM] 3.0): 89%
Aurora A % Activity Set2 (aurora A kinase (AURKA); Log[nM] 3.0): 91%
Aurora A % Activity Set3 (aurora A kinase (AURKA); Log[nM] 3.0): 92%
Aurora A % Activity Set1 (aurora A kinase (AURKA); Log[nM] 3.5): 48%
Aurora A % Activity Set2 (aurora A kinase (AURKA); Log[nM] 3.5): 50%
Aurora A % Activity Set3 (aurora A kinase (AURKA); Log[nM] 3.5): 53%
Aurora A % Activity Set1 (aurora A kinase (AURKA); Log[nM] 4.0): 17%
Aurora A % Activity Set2 (aurora A kinase (AURKA); Log[nM] 4.0): 17%
Aurora A % Activity Set3 (aurora A kinase (AURKA); Log[nM] 4.0): 17%
Aurora A % Activity Set1 (aurora A kinase (AURKA); Log[nM] 4.5): 7%
Aurora A % Activity Set2 (aurora A kinase (AURKA); Log[nM] 4.5): 8%
Aurora A % Activity Set3 (aurora A kinase (AURKA); Log[nM] 4.5): 8%
Aurora A % Activity Set1 (aurora A kinase (AURKA); Log[nM] 5.0): 4%
Aurora A % Activity Set2 (aurora A kinase (AURKA); Log[nM] 5.0): 4%
Aurora A % Activity Set3 (aurora A kinase (AURKA); Log[nM] 5.0): 3%
IC50 (EGFR; [3]): 20 ± 3.6 nM
IC50 (EGFR; [4]): 19.9 nM
EGFR % Activity Set1 (EGFR; Log[nM] 0): 77%
EGFR % Activity Set2 (EGFR; Log[nM] 0): 88%
EGFR % Activity Set3 (EGFR; Log[nM] 0): 76%
EGFR % Activity Set1 (EGFR; Log[nM] 1.0): 69%
EGFR % Activity Set2 (EGFR; Log[nM] 1.0): 75%
EGFR % Activity Set3 (EGFR; Log[nM] 1.0): 66%
EGFR % Activity Set1 (EGFR; Log[nM] 1.5): 34%
EGFR % Activity Set2 (EGFR; Log[nM] 1.5): 39%
EGFR % Activity Set3 (EGFR; Log[nM] 1.5): 33%
EGFR % Activity Set1 (EGFR; Log[nM] 2.0): 19%
EGFR % Activity Set2 (EGFR; Log[nM] 2.0): 19%
EGFR % Activity Set3 (EGFR; Log[nM] 2.0): 16%
EGFR % Activity Set1 (EGFR; Log[nM] 2.5): 10%
EGFR % Activity Set2 (EGFR; Log[nM] 2.5): 9%
EGFR % Activity Set3 (EGFR; Log[nM] 2.5): 8%
EGFR % Activity Set1 (EGFR; Log[nM] 3.0): 5%
EGFR % Activity Set2 (EGFR; Log[nM] 3.0): 5%
EGFR % Activity Set3 (EGFR; Log[nM] 3.0): 5%
EGFR % Activity Set1 (EGFR; Log[nM] 3.5): 2%
EGFR % Activity Set2 (EGFR; Log[nM] 3.5): 9%
EGFR % Activity Set3 (EGFR; Log[nM] 3.5): 2%
EGFR % Activity Set1 (EGFR; Log[nM] 4.0): 1%
EGFR % Activity Set2 (EGFR; Log[nM] 4.0): 1%
EGFR % Activity Set3 (EGFR; Log[nM] 4.0): 1%
EGFR % Activity Set1 (EGFR; Log[nM] 4.5): 0%
EGFR % Activity Set2 (EGFR; Log[nM] 4.5): 0%
EGFR % Activity Set3 (EGFR; Log[nM] 4.5): 0%
EGFR % Activity Set1 (EGFR; Log[nM] 5.0): 0%
EGFR % Activity Set2 (EGFR; Log[nM] 5.0): 0%
EGFR % Activity Set3 (EGFR; Log[nM] 5.0): 0%
